The subject of test [1] is MV4;11 cells. The experiment in a line: Cell viability assay (CellTiter-Glo) in MV4;11 cells, alone or with gilteritinib. It is filed as cell-based. The following applies: Homo sapiens, MV4;11 cells, CellTiter-Glo, read-out: MV4. (In general: In ATP-based viability assays light output follows the ATP content of the culture.)
Test [2] deals with MOLM-13 cells. The experiment in a line: Cell viability assay (CellTiter-Glo) in MOLM-13 cells, alone or with gilteritinib. It is filed as cell-based. The following applies: Homo sapiens, MOLM-13 cells, CellTiter-Glo.
Setting [3] is: MV4-11, 72 h, compound alone (without gilteritinib), three days, 11 IC50.
The mark [4] stands for this setting: MV4-11, 72 h, with gilteritinib 10 nM, three days, 11 IC50 gilteritinib.
The mark [5] stands for this setting: MOLM-13, 72 h, compound alone (without gilteritinib), three days, read-out: MOLM-13 IC50.
[6] abbreviates: MOLM-13, 72 h, with gilteritinib 20 nM, three days, read-out: MOLM-13 IC50 gilteritinib.
Setting [7] is: MV4-11, 72 h, compound with gilteritinib 10 nM, three days, 11 IC50 gilteritinib.
Where [8] appears, read: MOLM-13, 72 h, compound with gilteritinib 20 nM, three days, read-out: MOLM-13 IC50 gilteritinib.
[9] abbreviates: MV4-11, 72 h, with 10 nM gilteritinib, 3 days, 11 IC50 gilteritinib.
Setting [10] is: MV4-11, 72 h, without gilteritinib, 3 days, 11 IC50.
Setting [11] is: MOLM-13, 72 h, with 20 nM gilteritinib, 3 days, read-out: MOLM-13 IC50 gilteritinib.
[12] abbreviates: MOLM-13, 72 h, without gilteritinib, 3 days, read-out: MOLM-13 IC50.

Structures are written as SMILES. Where two headings read alike, the source gives them in different places. Bounds are passed on as bounds.

With `CN1CCN(c2cccc3ncc(-c4cnn(C5CCN(C(=O)CCCCCNc6ccc7c(c6)C(=O)N(C6CCC(=O)NC6=O)C7=O)CC5)c4)nc23)CC1` (centres unmarked) [GS-036, 2-(2,6-Dioxopiperidin-3-yl)-5-((6-(4-(4-(8-(4-methylpiperazin-1-yl)quinoxalin-2-yl)-1H-pyrazol-1-yl)piperidin-1-yl)-6-oxohexyl)amino)isoindoline-1,3-dione], the IC50 in test [1] (setting [3]) is greater than 1000 nM; in test [1] (setting [4]), less than 10 nM; in test [2] (setting [5]), greater than 1000 nM; in test [2] (setting [6]) it was 10 to 100 nM.

In the case of `O=C1CCC(N2C(=O)c3ccc(NCCC[C@H]4C[C@H](n5cc(-c6cnc7ccc(C(F)(F)F)cc7n6)cn5)C4)cc3C2=O)C(=O)N1` (stereo partly drawn) [GS-212, 2-(2,6-Dioxopiperidin-3-yl)-5-((3-(trans-3-(4-(7-(trifluoromethyl)quinoxalin-2-yl)-1H-pyrazol-1-yl)cyclobutyl)propyl)amino)isoindoline-1,3-dione], the IC50 in test [1] (setting [3]), in test [1] (setting [4]), in test [2] (setting [5]) and in test [2] (setting [6]) was 10 to 100 nM throughout.

Turning to `O=C1CCC(N2C(=O)c3ccc(NCCCC4CC(n5cc(-c6cnc7ccc(NC8COC8)cc7n6)cn5)C4)cc3C2=O)C(=O)N1` (centres unmarked) [GS-567, 2-(2,6-Dioxopiperidin-3-yl)-5-((3-(3-(4-(7-(oxetan-3-ylamino)quinoxalin-2-yl)-1H-pyrazol-1-yl)cyclobutyl)propyl)amino)isoindoline-1,3-dione], the IC50 is 100 to 1000 nM in test [1] (setting [3]), 10 to 100 nM in test [1] (setting [7]), 100 to 1000 nM in test [2] (setting [5]) and less than 10 nM in test [2] (setting [8]).

For the compound `Cc1nc(-c2cn([C@H]3C[C@H](CCc4ccc5c(c4)C(=O)N(C4CCC(=O)NC4=O)C5=O)C3)nc2C2CC2)ccc1F` (stereo partly drawn) [GS-629, 5-(2-(trans-3-(3-Cyclopropyl-4-(5-fluoro-6-methylpyridin-2-yl)-1H-pyrazol-1-yl)cyclobutyl)ethyl)-2-(2,6-dioxopiperidin-3-yl)isoindoline-1,3-dione], the IC50 in test [1] (setting [3]) is greater than 1000 nM; in test [1] (setting [7]), 100 to 1000 nM; in test [2] (setting [5]), greater than 1000 nM; in test [2] (setting [8]), 100 to 1000 nM.

`O=C1CCC(N2Cc3cc(CCCCC4CC(n5cc(-c6cnc7ccccc7n6)cn5)C4)ccc3C2=O)C(=O)N1` (centres unmarked) [GS-226, 3-(1-Oxo-5-(4-(3-(4-(quinoxalin-2-yl)-1H-pyrazol-1-yl)cyclobutyl)butyl)isoindolin-2-yl)piperidine-2,6-dione]: the IC50 in test [1] (setting [3]) was 100 to 1000 nM; in test [1] (setting [4]), 100 to 1000 nM; in test [2] (setting [5]), greater than 1000 nM; in test [2] (setting [6]), greater than 1000 nM.

In the case of `O=C1CCC(N2C(=O)c3ccc(NCCC[C@H]4C[C@H](n5cc(-c6cnccn6)cn5)C4)cc3C2=O)C(=O)N1` (stereo partly drawn) [GS-235, 2-(2,6-Dioxopiperidin-3-yl)-5-((3-(trans-3-(4-(pyrazin-2-yl)-1H-pyrazol-1-yl)cyclobutyl)propyl)amino)isoindoline-1,3-dione], the IC50 in test [1] (setting [3]) was less than 10 nM; in test [1] (setting [4]) it was 100 to 1000 nM; in test [2] (setting [5]) it was greater than 1000 nM; in test [2] (setting [6]), 100 to 1000 nM.

Turning to `O=C1CCC(N2C(=O)c3ccc(NCCC[C@H]4C[C@H](n5cc(-c6cnc7c(C8CNC8)cccc7n6)cn5)C4)cc3C2=O)C(=O)N1` (stereo partly drawn) [GS-250, 5-((3-(trans-3-(4-(5-(Azetidin-3-yl)quinoxalin-2-yl)-1H-pyrazol-1-yl)cyclobutyl)propyl)amino)-2-(2,6-dioxopiperidin-3-yl)isoindoline-1,3-dione], the IC50 in test [1] (setting [3]) lay in the range of 100 to 1000 nM; in test [1] (setting [4]), 10 to 100 nM; in test [2] (setting [5]), 100 to 1000 nM; in test [2] (setting [6]), 10 to 100 nM.

Turning to `CN(c1ccccc1)C1CCN(CC(=O)NCCNc2ccc3c(c2)C(=O)N(C2CCC(=O)NC2=O)C3=O)CC1` (centres unmarked) [GS-320], the IC50 in test [1] (72 h, compound alone (without gilteritinib), three days, 11 IC50) is greater than 1000 nM; in test [1] (72 h, with gilteritinib 10 nM, three days, 11 IC50 gilteritinib) it was greater than 1000 nM; in test [2] (72 h, compound alone (without gilteritinib), three days, read-out: MOLM-13 IC50), greater than 1000 nM; in test [2] (72 h, with gilteritinib 20 nM, three days, read-out: MOLM-13 IC50 gilteritinib) it was 100 to 1000 nM.

On to `O=C1CCC(N2C(=O)c3ccc(NC[C@H]4C[C@H](n5cc(-c6cc7[nH]ncc7cn6)c(C6CC6)n5)C4)cc3C2=O)C(=O)N1` (stereo partly drawn) [GS-288, 5-(((trans-3-(3-Cyclopropyl-4-(1H-pyrazolo[4,3-c]pyridin-6-yl)-1H-pyrazol-1-yl)cyclobutyl)methyl)amino)-2-(2,6-dioxopiperidin-3-yl)isoindoline-1,3-dione], for which the IC50 is 100 to 1000 nM in test [1] (setting [3]), 10 to 100 nM in test [1] (setting [4]), 100 to 1000 nM in test [2] (setting [5]) and 10 to 100 nM in test [2] (setting [6]).

As to `O=C1CCC(N2C(=O)c3ccc(NC[C@H]4C[C@H](n5cc(-c6nccc7cn[nH]c67)c(C6CC6)n5)C4)cc3C2=O)C(=O)N1` (stereo partly drawn) [GS-310, 5-(((trans-3-(3-Cyclopropyl-4-(1H-pyrazolo[3,4-c]pyridin-7-yl)-1H-pyrazol-1-yl)cyclobutyl)methyl)amino)-2-(2,6-dioxopiperidin-3-yl)isoindoline-1,3-dione], the IC50 in test [1] (setting [3]) lay within 10 to 100 nM; in test [1] (setting [4]) it was 10 to 100 nM; in test [2] (setting [5]) it was 100 to 1000 nM; in test [2] (setting [6]), 10 to 100 nM.

As for `O=C1CCC(N2C(=O)c3ccc(NCCCCCC(=O)N4CCC(N5CCC(c6cnc7ccccc7n6)C5)CC4)cc3C2=O)C(=O)N1` (centres unmarked) [GS-015, 2-(2,6-Dioxopiperidin-3-yl)-5-((6-oxo-6-(4-(3-(quinoxalin-2-yl)pyrrolidin-1-yl)piperidin-1-yl)hexyl)amino)isoindoline-1,3-dione], the IC50 is 2780 nM in test [1] (setting [9]), greater than 10000 nM in test [1] (setting [10]), 30 nM in test [2] (setting [11]) and greater than 10000 nM in test [2] (setting [12]).

As to `O=C1CCC(N2C(=O)c3ccc(NC[C@H]4C[C@H](n5cc(C6CCCC6)c(C6CC6)n5)C4)cc3C2=O)C(=O)N1` (stereo partly drawn) [GS-631, 5-(((trans-3-(4-Cyclopentyl-3-cyclopropyl-1H-pyrazol-1-yl)cyclobutyl)methyl)amino)-2-(2,6-dioxopiperidin-3-yl)isoindoline-1,3-dione], the IC50 lay within 100 to 1000 nM in test [1] (setting [3]), 10 to 100 nM in test [1] (setting [7]), 100 to 1000 nM in test [2] (setting [5]) and 10 to 100 nM in test [2] (setting [8]).

For the compound `Cc1nn([C@H]2C[C@H](CCCNc3ccc4c(c3)C(=O)N(C3CCC(=O)NC3=O)C4=O)C2)cc1-c1cccc(N2CCOCC2)n1` (stereo partly drawn) [GS-244, 2-(2,6-Dioxopiperidin-3-yl)-5-((3-(trans-3-(3-methyl-4-(6-morpholinopyridin-2-yl)-1H-pyrazol-1-yl)cyclobutyl)propyl)amino)isoindoline-1,3-dione], the IC50 in test [1] (setting [3]) was 100 to 1000 nM; in test [1] (setting [4]), 10 to 100 nM; in test [2] (setting [5]), greater than 1000 nM; in test [2] (setting [6]) it was 10 to 100 nM.

As for `O=C1CCC(N2C(=O)c3ccc(NCCCCCC(=O)N4CCC(n5cc(C6CC6)cn5)CC4)cc3C2=O)C(=O)N1` (centres unmarked) [GS-064, 5-((6-(4-(4-Cyclopropyl-1H-pyrazol-1-yl)piperidin-1-yl)-6-oxohexyl)amino)-2-(2,6-dioxopiperidin-3-yl)isoindoline-1,3-dione], the IC50 in test [1] (setting [9]) amounted to 27 nM; in test [1] (setting [10]), 349 nM; in test [2] (setting [11]), 600 nM; in test [2] (setting [12]), 520 nM.

`O=C1CCC(N2C(=O)c3ccc(NCCC[C@H]4C[C@H](n5cc(-c6cnc7ccc(N8CCNCC8)cc7n6)cn5)C4)cc3C2=O)C(=O)N1` (stereo partly drawn) [GS-195, 2-(2,6-Dioxopiperidin-3-yl)-5-((3-(trans-3-(4-(7-(piperazin-1-yl)quinoxalin-2-yl)-1H-pyrazol-1-yl)cyclobutyl)propyl)amino)isoindoline-1,3-dione]: the IC50 in test [1] (setting [3]) was 100 to 1000 nM; in test [1] (setting [4]) it was less than 10 nM; in test [2] (setting [5]), 100 to 1000 nM; in test [2] (setting [6]) it was less than 10 nM.

`O=C1CCC(N2C(=O)c3ccc(NC[C@H]4C[C@H](n5cc(-c6nccc7ccncc67)c(C6CC6)n5)C4)cc3C2=O)C(=O)N1` (stereo partly drawn) [GS-284, 5-(((trans-3-(3-Cyclopropyl-4-(2,7-naphthyridin-1-yl)-1H-pyrazol-1-yl)cyclobutyl)methyl)amino)-2-(2,6-dioxopiperidin-3-yl)isoindoline-1,3-dione]: the IC50 in test [1] (setting [3]), in test [1] (setting [4]), in test [2] (setting [5]) and in test [2] (setting [6]) was less than 10 nM throughout.

Take `Cc1cccc(-c2cn([C@H]3C[C@H](CNc4ccc5c(c4)C(=O)N(C4CCC(=O)NC4=O)C5=O)C3)nc2C2CCNCC2)n1` (stereo partly drawn) [GS-638, 2-(2,6-Dioxopiperidin-3-yl)-5-(((trans-3-(4-(6-methylpyridin-2-yl)-3-(piperidin-4-yl)-1H-pyrazol-1-yl)cyclobutyl)methyl)amino)isoindoline-1,3-dione]: the IC50 in test [1] (setting [3]), in test [1] (setting [7]), in test [2] (setting [5]) and in test [2] (setting [8]) was greater than 1000 nM each time.

For the origin of these results see US20240050428A1 (Cullgen (Shanghai), Inc., priority 2020, published 2024).
